Marks after values point to notes of the source that are not given here.
Key:
[1] = test system: acute respiratory distress syndrome (ARDS); experiment: ARDS model, single intravenous LPS 7.5 mg/kg; type: in vivo, rat; conditions: Dexamethasone 5 mg/kg
Protocol: (§1) Since an intravenous administration of lipopolysaccharide (LPS) to animals is one of the most acceptable models for studying the pathogenesis, pathomorphological changes and consequences of acute respiratory distress syndrome, this model was used in this example. Tested medicament glutaryl histamine was administered for 9 days after the first administration of LPS, i.e. glutaryl histamine was administered for 12 days in total (3 days before the induction of ARDS and 9 days during and after the induction). The exception was dexamethasone since, according to the literature data and the information leaflet, long-time administration of steroidal anti-inflammatory agents can cause severe side effects. For this reason, dexamethasone was administered according to the following schedule: 49, 24 and 1 hour before the induction of ARDS in a dose of 5 mg/kg, for 3 days after the first injection of LPS in the same dose; the medicament was withdrawn by a gradual dose reduction for 3 days. Thus, dexamethasone was administered 9 times.
The mortality rate among the animals administered LPS in an intravenous dose of 7.5 mg/kg was 70% for 8 days. The most of them (60%) died on the first day, in particular, from 4 to 12-16 hours after the injection of LPS. The mortality rate among the animals administered glutaryl histamine was different from the rate in animals treated with dexamethasone; however, most of them also died on the first day, about in the same time period (Table 11).

[2] = test system: acute rhinosinusitis induced by intranasal administration of formalin; type: in vivo, rat
Protocol: Activity of glutaryl histamine was studied in an experimental model of acute rhinosinusitis (ARS).
Administration of 20 μl of 7.5% formalin to the rat nasal passages leads to the development of a clinical picture similar to the symptoms of acute rhinosinusitis in a human.
The tested medicament and reference medicaments were administered for 7 days after administration of 7.5% formalin. Normal saline solution was used as placebo. The animals were subjected to euthanasia on day 8 after induction of experimental acute rhinosinusitis by method of air embolism. During necropsy, nasal passages of all animals were sampled. The obtained material was placed into 10% neutral-buffered formalin for further histological analysis.
The mucous and submucous membranes of both nasal passages (respiratory and olfactory regions) of the experimental animals were subjected to a morphological analysis of the specific activity of glutaryl histamine.
After the clinical phase of the experiment, the material derived from the animals was subjected to the standard treatment to prepare histological paraffin sections with a thickness of 3 to 5 μm. The sections were stained with hematoxylin and eosin for a microscopic study. Comparison and histological analysis of changes were performed versus the group of intact rats.
The main pathological processes inherent in experimental acute rhinosinusitis, such as vascular congestion in mucous membrane, hyperplasia and necrosis of the epithelium, the number of caliciform cells within 1 mm of the mucous membrane in the nasal septum, were evaluated by a semi-quantitative method to evaluate the degree of pathophysiological changes in histological, histochemical and morphological studies.
The microscopic analysis of exudative disorder developed in rats with acute rhinitis was aimed at measuring the number of caliciform cells comprising acidic mucus (Table 3).

[3] = test system: acute respiratory distress syndrome (ARDS); experiment: ARDS model, multiple-dose intravenous LPS (LD30); type: in vivo, rat
Protocol: as §1
At this step, animals were administered LPS at more lower dose, but for longer time period. They were received 2 mg/kg on days 1 and 2, and 3 and 4 mg/kg on days 3 and 4, respectively. The maximum mortality rate, similarly to the single-dose administration of LD70, was on the first day. On eighth day, mortality reached 33%.
The second step of the experiment comprises the evaluation of both the mortality rate of the animals with calculation of the protective index and narrower indexes used for determination of a specific protection provided by glutaryl histamine in ARDS. As was disclosed above, a lower dose of LPS (LD30) was used at the second stage. In addition, LPS was administered every day for 4 days. This method of administration was aimed at achieving the maximum disorder exactly in the lung for subsequent evaluation of possible protective action of glutaryl histamine.

LPS-induced tonsillitis = LPS-induced tonsillitis model (E. coli LPS into cervical lymph node); type: in vivo
Protocol: This example is aimed at evaluating the activity of glutaryl histamine on experimental model of tonsillitis. LPS-induced tonsillitis is one of the most adequate models for the study of the pathogenesis, pathomorphological changes and action of pharmacological medicaments on the course of this disease.
Tonsillitis was induced under anesthesia by administration of a solution of E. coli lipopolysaccharide (LPS) (Sigma) in normal physiological solution in a dose of 20 μg/kg, by 10 μl to the right upper lymph node (Inn. Cervicales superficiales). After administration, the lymph nodes were put under superficial neck muscles and then the skin was stitched. The wound was treated with streptocide. The animal was placed into a post-operation cage.
The tested medicament was administered once daily in a given dose strictly at the stated time for three days before the induction of tonsillitis and 10 days after. Normal saline solution was used as placebo.
Immediately after euthanasia, the animals were subjected to necropsy, the affected and intact lymph nodes were removed and weighed.
The lymph nodes derived from the half of animals from each group were being frozen after removal in a refrigerating chamber at −25° C. for 72 hours. Then the lymph nodes were lyophilized.
In a half of animals from each group (7), the affected lymph nodes were subjected to histological analysis. After euthanasia, intact and affected lymph nodes were removed from each animal. […] Sections with a thickness of 4 to 6 μm were prepared from the paraffin blocks, stained with hematoxylin and eosin to reveal typical pathological processes and study required parameters using light-optical microscope Leica DM LS (magnification 200× and 400×).
Weights of intact and affected lymph nodes were compared and the nodes also were lyophilized to evaluate an effect of the medicaments on the swelling degree and adequacy of the model of tonsillitis.
The protein-synthetic function of the liver and a systemic effect of the medicaments on organism were evaluated in total protein (TP) analysis.

## C[C@@H]1C[C@H]2[C@@H]3CCC4=CC(=O)C=C[C@]4(C)[C@@]3(F)[C@@H](O)C[C@]2(C)[C@@]1(O)C(=O)CO [Dexamethasone, dexamethasone, reference compound]
[1]
  IP (%) (protective index): 28.6%
  S (%) (survival rate): 50%
[1]; 8 days
  Me (%) (mortality rate): 50%
[1]; total number 10
  Died: 5
[2]; Dexamethasone 5 mg/kg, n = 10
  Mucopurulent catarrh (number of rats): 0
  Mucous catarrh (number of rats): 1
  Without changes (number of rats, mucous membrane in the nasal passages, macroscopic): 9
[2]; Dexamethasone (5 mg/kg), M ± m
  The number of caliciform cells within 1 mm of the mucosal membrane of the nasal septum: 15.6 ± 0.6
[3]; Dexamethasone 5 mg/kg
  IP (%) (protective index): 62.5%
  M (%) (mortality rate): 12.5%
  S (%) (survival rate): 87.5%
[3]; Dexamethasone 5 mg/kg, total number 24
  Died: 3
[3]; dexamethasone (5 mg/kg), first three days
  mortality rate for the first three days: 0%
LPS-induced tonsillitis; Dexamethasone 5 mg/kg
  Mortality rate (%): 64%
  The number of died animals/initial number of animals in a group: 9/14
LPS-induced tonsillitis; Dexamethasone (5 mg/kg), M ± m
  Area of germinal centers of lymphoid follicles in affected lymph nodes: 0.016 ± 0.004* ** mm^2
  Weight difference between affected and intact lymph nodes: 15.6 ± 1.8 mg

Reference: patent US20170143674A1, “Use of Glutaryl Histamine for the Treatment of Respiratory Tract Diseases” (LTD "VALENTA-INTELLEKT", priority 2011, published 2017)
